ChEMBL document CHEMBL5244220, “Methyl-containing pharmaceuticals: Methylation in drug design” (Bioorg Med Chem Lett, 2018)

Legend:
[1] = Aqueous solubility of compound; assay type: physicochemical
[2] = Oral bioavailability in rat; assay type: ADME, organism-based; details: in vivo
[3] = Apparent permeability across apical to basolateral side in human Caco-2 cells; assay type: ADME, cell-based
[4] = Terminal half life in po dosed human; assay type: ADME, organism-based; details: in vivo, read-out: beta t1/2 (converted)
[5] = Terminal half life in po dosed mouse; assay type: ADME, organism-based; details: in vivo, read-out: beta t1/2 (converted)
[6] = Terminal half life in po dosed dog; assay type: ADME, organism-based, Canis lupus familiaris; details: in vivo, read-out: beta t1/2 (converted)
[7] = Terminal half life in po dosed rat; assay type: ADME, organism-based; details: in vivo, read-out: beta t1/2 (converted)
[8] = target: GABA-A receptor; anion channel; test: Positive allosteric modulator activity at human GABAA receptor measured by [35S]TBPS based functional assay; assay type: protein-complex assay
[9] = Oral bioavailability in Sprague-Dawley rat at 2 mg/kg; assay type: ADME, organism-based; details: in vivo
[10] = target: T1, Orexin/Hypocretin receptor type 1 (Homo sapiens, UniProt O43613); test: Antagonist activity at human OX1R by FLIPR assay
T1 sequence (O43613 whole entry): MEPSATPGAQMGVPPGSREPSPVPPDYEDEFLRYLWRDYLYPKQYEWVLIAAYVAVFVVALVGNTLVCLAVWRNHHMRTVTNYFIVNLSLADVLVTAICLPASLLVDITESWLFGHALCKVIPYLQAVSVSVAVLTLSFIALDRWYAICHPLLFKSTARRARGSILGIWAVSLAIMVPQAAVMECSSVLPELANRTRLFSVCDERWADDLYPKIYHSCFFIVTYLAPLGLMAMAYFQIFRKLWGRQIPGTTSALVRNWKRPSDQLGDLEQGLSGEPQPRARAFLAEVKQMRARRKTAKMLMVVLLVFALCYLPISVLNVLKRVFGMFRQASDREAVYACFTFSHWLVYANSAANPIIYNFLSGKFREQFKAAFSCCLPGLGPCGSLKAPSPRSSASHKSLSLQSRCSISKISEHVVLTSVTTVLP

[11] = test system: Aspergillus fumigatus; test: Antifungal activity against Aspergillus fumigatus assessed as inhibition of fungal growth; assay type: functional
[12] = target: T2, Orexin receptor type 2 (Homo sapiens, UniProt O43614); test: Antagonist activity at human OX2R by FLIPR assay
T2 sequence (O43614 whole entry): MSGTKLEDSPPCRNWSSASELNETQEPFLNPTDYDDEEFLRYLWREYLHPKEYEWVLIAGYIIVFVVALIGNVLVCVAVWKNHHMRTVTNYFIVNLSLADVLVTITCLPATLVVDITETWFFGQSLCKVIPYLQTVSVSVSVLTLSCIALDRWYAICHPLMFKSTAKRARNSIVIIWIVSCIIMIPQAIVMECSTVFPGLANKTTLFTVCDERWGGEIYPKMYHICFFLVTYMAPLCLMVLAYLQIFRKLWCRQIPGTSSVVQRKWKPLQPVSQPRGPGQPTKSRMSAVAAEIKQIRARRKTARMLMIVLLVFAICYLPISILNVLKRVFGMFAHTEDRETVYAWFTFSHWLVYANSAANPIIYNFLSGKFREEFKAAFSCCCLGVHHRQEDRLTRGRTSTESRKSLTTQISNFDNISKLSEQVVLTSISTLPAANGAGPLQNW

[13] = target: Protein kinase C (PKC); test: Inhibition of PKC (unknown origin); assay type: protein assay, Homo sapiens
[14] = target: BCR/ABL1 (Mus musculus, UniProt P00520); test: Inhibition of Bcr-Abl phosphorylation in BALB/c mouse 3T3 by Western blot analysis; assay type: cell-based
[15] = target: Platelet-derived growth factor receptor beta (Mus musculus, UniProt P05622); test: Inhibition of PDGFR phosphorylation in BALB/c mouse 3T3 by Western blot analysis; assay type: cell-based
[16] = target: cAMP-dependent protein kinase (PKA) (Homo sapiens, UniProt P22694+P17612+P22612); test: Inhibition of PKA (unknown origin); assay type: protein assay
[17] = Half life in Sprague-Dawley rat plasma at 20 mg/kg, po; assay type: ADME, organism-based
[18] = clinical; details: human, plasma, po, 100 mg
[19] = Half life in rat plasma; assay type: ADME, cell-free
[20] = Oral bioavailability in Beagle dog at 0.5 mg/kg; assay type: ADME, organism-based, Canis lupus familiaris; details: in vivo
[21] = target: T3, 3-hydroxy-3-methylglutaryl-coenzyme A reductase (Rattus norvegicus, UniProt P51639); test: Inhibition of rat liver HMG-CoA reductase pre incubated for 5 mins followed by substrate addition using NADPH as substrate by scintillation counter analysis; assay type: tissue-based
T3 sequence (P51639 whole entry): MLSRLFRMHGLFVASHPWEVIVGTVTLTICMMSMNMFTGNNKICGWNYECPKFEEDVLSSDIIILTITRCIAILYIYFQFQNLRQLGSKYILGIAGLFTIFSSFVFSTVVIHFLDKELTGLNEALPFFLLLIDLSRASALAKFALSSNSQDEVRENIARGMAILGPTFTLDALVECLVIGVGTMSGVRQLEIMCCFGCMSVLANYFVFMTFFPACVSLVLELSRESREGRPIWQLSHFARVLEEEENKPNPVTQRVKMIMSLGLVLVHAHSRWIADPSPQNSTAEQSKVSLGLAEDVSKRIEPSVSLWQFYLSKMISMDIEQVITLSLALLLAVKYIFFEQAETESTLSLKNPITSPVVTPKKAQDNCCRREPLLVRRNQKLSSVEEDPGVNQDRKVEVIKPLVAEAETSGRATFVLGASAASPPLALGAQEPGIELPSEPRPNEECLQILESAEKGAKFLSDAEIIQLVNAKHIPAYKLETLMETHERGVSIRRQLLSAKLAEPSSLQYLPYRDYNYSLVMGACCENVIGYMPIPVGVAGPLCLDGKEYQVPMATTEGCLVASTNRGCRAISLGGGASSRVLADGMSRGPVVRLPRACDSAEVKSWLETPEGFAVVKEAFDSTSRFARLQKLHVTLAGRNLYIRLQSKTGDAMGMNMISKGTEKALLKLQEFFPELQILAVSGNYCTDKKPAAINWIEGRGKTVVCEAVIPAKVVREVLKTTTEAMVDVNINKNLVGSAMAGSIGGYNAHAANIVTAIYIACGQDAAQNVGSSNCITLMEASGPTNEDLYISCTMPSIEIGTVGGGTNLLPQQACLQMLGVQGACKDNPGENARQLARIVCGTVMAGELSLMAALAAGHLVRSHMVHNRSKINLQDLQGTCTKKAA

Platelet-derived growth factor receptor beta, sequence (P05622 whole entry): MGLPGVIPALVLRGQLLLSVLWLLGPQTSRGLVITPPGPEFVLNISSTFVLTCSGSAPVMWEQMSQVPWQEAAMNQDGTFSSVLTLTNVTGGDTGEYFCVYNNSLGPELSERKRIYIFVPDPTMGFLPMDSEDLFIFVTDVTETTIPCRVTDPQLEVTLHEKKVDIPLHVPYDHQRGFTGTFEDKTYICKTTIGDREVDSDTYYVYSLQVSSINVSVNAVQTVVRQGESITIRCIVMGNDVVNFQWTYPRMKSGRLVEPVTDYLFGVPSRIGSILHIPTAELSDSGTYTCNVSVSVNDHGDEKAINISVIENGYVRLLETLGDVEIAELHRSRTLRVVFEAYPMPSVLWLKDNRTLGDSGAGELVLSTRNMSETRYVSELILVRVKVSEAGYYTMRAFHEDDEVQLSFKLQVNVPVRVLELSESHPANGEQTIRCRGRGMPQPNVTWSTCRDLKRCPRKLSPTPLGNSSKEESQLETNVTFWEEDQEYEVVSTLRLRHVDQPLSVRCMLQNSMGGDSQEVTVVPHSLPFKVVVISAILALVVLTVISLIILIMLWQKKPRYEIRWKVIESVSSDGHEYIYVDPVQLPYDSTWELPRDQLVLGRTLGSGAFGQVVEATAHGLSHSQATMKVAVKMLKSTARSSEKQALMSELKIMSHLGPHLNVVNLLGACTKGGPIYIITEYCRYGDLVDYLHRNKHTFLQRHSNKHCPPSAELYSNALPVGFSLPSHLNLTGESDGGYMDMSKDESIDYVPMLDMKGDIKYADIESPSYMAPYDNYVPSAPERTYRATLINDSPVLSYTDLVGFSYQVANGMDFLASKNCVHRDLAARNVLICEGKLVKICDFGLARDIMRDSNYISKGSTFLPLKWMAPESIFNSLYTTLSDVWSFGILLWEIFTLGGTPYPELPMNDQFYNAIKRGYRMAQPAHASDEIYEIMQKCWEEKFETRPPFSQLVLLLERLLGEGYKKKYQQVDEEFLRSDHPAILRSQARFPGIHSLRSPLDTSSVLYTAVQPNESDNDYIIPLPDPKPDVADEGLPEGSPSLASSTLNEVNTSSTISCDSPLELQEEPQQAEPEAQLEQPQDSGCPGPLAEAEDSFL
BCR/ABL1, sequence (P00520 whole entry): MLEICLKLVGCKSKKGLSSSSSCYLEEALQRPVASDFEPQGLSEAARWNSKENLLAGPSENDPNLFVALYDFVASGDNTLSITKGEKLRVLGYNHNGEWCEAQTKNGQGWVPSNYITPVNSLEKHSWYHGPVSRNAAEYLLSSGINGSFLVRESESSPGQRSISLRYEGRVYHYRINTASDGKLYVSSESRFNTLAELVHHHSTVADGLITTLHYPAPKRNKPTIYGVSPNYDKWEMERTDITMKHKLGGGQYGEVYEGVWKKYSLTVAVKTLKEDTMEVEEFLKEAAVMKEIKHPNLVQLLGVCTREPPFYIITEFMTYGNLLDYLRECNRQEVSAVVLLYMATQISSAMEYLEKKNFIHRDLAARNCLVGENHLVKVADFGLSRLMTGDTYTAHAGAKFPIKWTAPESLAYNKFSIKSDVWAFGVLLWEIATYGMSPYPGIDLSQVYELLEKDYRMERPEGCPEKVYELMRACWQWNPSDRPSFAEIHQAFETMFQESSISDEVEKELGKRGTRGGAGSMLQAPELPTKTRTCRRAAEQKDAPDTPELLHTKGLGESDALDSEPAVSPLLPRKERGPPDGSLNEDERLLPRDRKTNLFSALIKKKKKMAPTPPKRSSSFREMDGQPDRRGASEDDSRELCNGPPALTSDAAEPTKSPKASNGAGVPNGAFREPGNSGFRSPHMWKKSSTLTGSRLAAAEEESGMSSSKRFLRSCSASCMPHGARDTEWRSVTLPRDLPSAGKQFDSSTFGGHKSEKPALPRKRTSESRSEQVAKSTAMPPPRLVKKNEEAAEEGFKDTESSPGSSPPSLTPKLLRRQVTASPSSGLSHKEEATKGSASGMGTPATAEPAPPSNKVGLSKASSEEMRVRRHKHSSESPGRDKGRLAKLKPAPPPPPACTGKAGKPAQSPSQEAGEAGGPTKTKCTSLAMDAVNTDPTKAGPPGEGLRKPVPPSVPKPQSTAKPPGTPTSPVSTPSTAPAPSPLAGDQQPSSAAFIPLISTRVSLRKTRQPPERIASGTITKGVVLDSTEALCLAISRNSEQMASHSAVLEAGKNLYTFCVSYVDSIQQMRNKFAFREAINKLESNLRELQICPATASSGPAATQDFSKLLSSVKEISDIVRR
BCR/ABL1, sequence (Q6PAJ1 whole entry, further chain): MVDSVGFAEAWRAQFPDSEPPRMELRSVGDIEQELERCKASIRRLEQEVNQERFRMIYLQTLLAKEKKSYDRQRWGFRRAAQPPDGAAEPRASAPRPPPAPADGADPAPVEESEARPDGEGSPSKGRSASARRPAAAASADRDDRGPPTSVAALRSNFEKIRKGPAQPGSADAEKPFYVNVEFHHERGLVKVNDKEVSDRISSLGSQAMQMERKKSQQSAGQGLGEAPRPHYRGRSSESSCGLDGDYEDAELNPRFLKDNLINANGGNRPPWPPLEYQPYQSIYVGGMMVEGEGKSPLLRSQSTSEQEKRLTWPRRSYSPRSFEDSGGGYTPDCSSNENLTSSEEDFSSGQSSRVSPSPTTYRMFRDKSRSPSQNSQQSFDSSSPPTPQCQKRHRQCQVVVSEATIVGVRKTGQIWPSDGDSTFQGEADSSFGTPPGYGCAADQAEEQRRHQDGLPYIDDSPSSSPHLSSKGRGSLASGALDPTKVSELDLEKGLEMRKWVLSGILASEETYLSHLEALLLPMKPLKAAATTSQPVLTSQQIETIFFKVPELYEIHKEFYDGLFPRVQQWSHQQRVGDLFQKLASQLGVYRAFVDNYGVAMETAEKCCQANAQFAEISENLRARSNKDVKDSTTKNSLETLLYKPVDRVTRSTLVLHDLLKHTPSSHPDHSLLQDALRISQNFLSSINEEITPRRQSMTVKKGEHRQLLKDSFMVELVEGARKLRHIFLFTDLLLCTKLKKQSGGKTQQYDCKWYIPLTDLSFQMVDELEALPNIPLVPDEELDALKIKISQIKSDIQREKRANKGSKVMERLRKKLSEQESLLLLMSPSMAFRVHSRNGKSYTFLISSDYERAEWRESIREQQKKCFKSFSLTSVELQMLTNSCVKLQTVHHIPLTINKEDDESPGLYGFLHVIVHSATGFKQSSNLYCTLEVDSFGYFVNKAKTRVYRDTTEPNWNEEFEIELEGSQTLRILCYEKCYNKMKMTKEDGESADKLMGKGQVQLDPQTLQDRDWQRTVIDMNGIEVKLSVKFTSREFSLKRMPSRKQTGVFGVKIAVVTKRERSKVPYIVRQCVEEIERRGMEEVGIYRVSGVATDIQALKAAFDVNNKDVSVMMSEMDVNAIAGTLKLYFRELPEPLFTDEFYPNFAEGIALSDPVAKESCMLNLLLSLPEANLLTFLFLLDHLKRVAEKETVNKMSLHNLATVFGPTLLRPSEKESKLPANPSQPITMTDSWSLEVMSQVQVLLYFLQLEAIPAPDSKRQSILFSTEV

Q: For `CC(c1ccncc1)n1[nH]c(=O)c2[nH]c3cc(Cl)ccc3c(=O)c2c1=O` (configuration not stated), which solubility [1] is on record?
A: > 290 µg/mL

Q: And the bioavailability [2]?
A: 30%

Q: For `O=c1[nH]n(Cc2ccncc2)c(=O)c2c(=O)c3ccc(Cl)cc3[nH]c12`, which Papp A→B [3] is on record?
A: 0.2 ×10⁻⁶ cm/s

Q: With `O=c1[nH]nc(CN2CCO[C@H](OCc3cc(C(F)(F)F)cc(C(F)(F)F)c3)[C@@H]2c2ccc(F)cc2)[nH]1` as the compound, how does the half-life [4] read?
A: 540 min

Q: What about the half-life [5] of the same compound?
A: 180 min

Q: What about the half-life [6] of the same compound?
A: 180 min

Q: And the half-life [7]?
A: 180 min

Q: With `CC(=O)[C@H]1CCC2C3CC[C@H]4C[C@](C)(O)CC[C@]4(C)C3CC[C@@]21C` (some centres not stated) as the compound, how does the IC50 [8] read?
A: 80 nM

Q: Which results are given for `Cc1ccc(-n2nccn2)c(C(=O)N2C[C@H](COc3ccc(F)cn3)CC[C@H]2C)c1`?
A: solubility [1]: < 24 µM; bioavailability [9]: < 10%

Q: With `COc1cccc(OC)c1C(=O)N1CCCN(c2nc3ccc(Cl)cc3s2)CC1` as the compound, how does the Ki [10] read?
A: 150 nM

Q: For `CC(=O)[C@H]1CCC2C3CC[C@H]4C[C@H](O)CC[C@]4(C)C3CC[C@@]21C` (some centres not stated), which IC50 [8] is on record?
A: 51 nM

Q: With `OC(Cn1cncn1)(Cn1cncn1)c1ccc(F)cc1` as the compound, how does the MIC [11] read?
A: > 50 µg/mL

Q: With `Cc1ccc(-n2nccn2)c(C(=O)N2CCC[C@@H](COc3ccc(F)cn3)C2)c1` as the compound, how does the Ki [10] read?
A: 96 nM

Q: What about the Ki [12] of the same compound?
A: 29 nM

Q: Which IC50 [13] does the source give for `CN1CCN(Cc2ccc(C(=O)Nc3cccc(Nc4nccc(-c5cccnc5)n4)c3)cc2)CC1` here?
A: > 100 µM

Q: What about the IC50 [14] of the same compound?
A: 100 nM

Q: And the IC50 [15]?
A: 200 nM

Q: What about the IC50 [16] of the same compound?
A: > 100 µM

Q: For `Cc1ccc(-c2cc(C(F)(F)F)nn2-c2ccc(S(N)(=O)=O)cc2)cc1` [CELECOXIB], which half-life [17] is on record?
A: 210 min

Q: And the half-life [18]?
A: 720 min

Q: With `Cc1ccc(-c2ncc(Cl)cc2-c2ccc(S(C)(=O)=O)cc2)cn1` [ETORICOXIB] as the compound, how does the half-life [19] read?
A: 120 min

Q: Which solubility [1] does the source give for `Cc1ccc(-c2ncccn2)c(C(=O)N2C[C@H](COc3ccc(F)cn3)CC[C@H]2C)c1` [FILOREXANT] here?
A: 192 µM

Q: What about the bioavailability [9] of the same compound?
A: 25%

Q: And the bioavailability [20]?
A: 26%

Q: With `Cc1ccc(NC(=O)c2ccc(CN3CCN(C)CC3)cc2)cc1Nc1nccc(-c2cccnc2)n1` [IMATINIB] as the compound, how does the IC50 [15] read?
A: 50 nM

Q: With `CC[C@H](C)C(=O)O[C@H]1C[C@@H](C)C=C2C=C[C@H](C)[C@H](CC[C@@H]3C[C@@H](O)CC(=O)O3)[C@H]21` [LOVASTATIN] as the compound, how does the IC50 [21] read?
A: 2.2 nM
